Legend:
A/WSN/33 [1] = assay: microbe, parasite or virus in culture; type: cell-based, influenza A virus
A549 cells = settings: human
H3N2 (A/Wyoming/03/2003) = type: cell-based, influenza A virus
[2] = tested on: H1N1 (A/California/07/2009); type: cell-based, influenza A virus
H3N2 A/Panama/1999 = type: cell-based, influenza A virus
[3] = tested on: HA-mediated membrane fusion; type: cell-based, influenza A virus; settings: pH 5
H1N1 A/WSN/1933 virus = type: cell-based, influenza A virus
influenza virus = type: cell-based
A/WSN/33 [4] = type: cell-based, influenza A virus
[5] = tested on: poly(A) RNA and GAPDH mRNA; assay: RNA-FISH and smRNA-FISH of cellular RNA in uninfected cells; type: cell-based, human; settings: 1 μM
A/WSN/33 [6] = type: cell-based, influenza A virus; remark: listed apart in the source
WSN-PB2-Nanoluc virus [7] = assay: microbe, parasite or virus in culture; type: cell-based; settings: Influenza A virus, HCT-116, read-out: IC50, Nanoluc levels
[8] = tested on: H5N1 A/Vietnam/1203/2004 HaLo virus; type: cell-based, influenza A virus; settings: 25 μM, MOI = 0.01, 24 h, A549 cells
WSN-PB2-Nanoluc virus [9] = type: cell-based, influenza A virus

Row | Compound | antiviral activity as described in SAR text (A/WSN/33 [1]) | selectivity index (A/WSN/33 [1]) | Cytotoxicity (MTT) CC10 (A549 cells) [µM] | number of infected cells (H3N2 (A/Wyoming/03/2003)) | number of infected cells [2] | reduction of viral titers (H3N2 A/Panama/1999) | inhibition of fusion (hemolysis) [3] | reduction of viral titers (H1N1 A/WSN/1933 virus) | viral mRNA levels in primary cells (influenza virus) | viral M mRNA expression, compound added after infection (A/WSN/33 [4]) | viral M mRNA expression, compound added prior to infection (A/WSN/33 [4]) | viral mRNA levels (HA, NS1, M1, M2) by qPCR (A/WSN/33 [4]) | viral mRNA levels (M, HA, NS) by smRNA-FISH (A/WSN/33 [4]) | effect on cellular bulk poly(A) RNA or GAPDH [5] | antiviral activity when used shortly post-infection (western blot NP, M1) (A/WSN/33 [6]) | viral protein levels (western blot) (A/WSN/33 [6]) | IC50 (WSN-PB2-Nanoluc virus [7]) [µM] | reduction of viral titers [8] | activity under the assay conditions (WSN-PB2-Nanoluc virus [9])
1 | CCN(c1ccc(F)cc1F)S(=O)(=O)c1cc(Cl)ccc1Cl [compound 21, 2,5-Dichloro-N-(2,4-difluorophenyl)-N-ethylbenzenesulfonamide] | equipotent to compound 1 | >96 | >5 | slightly inhibited the number of infected cells | robustly reduced the number of cells infected |  |  |  |  |  |  |  |  |  |  |  |  |  | 
2 | CCN(c1ccc(Cl)cc1C)S(=O)(=O)c1cc(Cl)ccc1Cl [compound 12, 2,5-Dichloro-N-(4-chloro-2-methylphenyl)-N-ethylbenzenesulfonamide] | generally more potent | >147 | >5 | more effectively decreased infection | robustly reduced the number of cells infected |  |  |  |  |  |  |  |  |  |  |  |  |  | 
3 | CCN(c1ccccc1C)S(=O)(=O)c1cc(Cl)ccc1Cl [compound 1, 2,5-dichloro-N-ethyl-N-(o-tolyl)-benzenesulfonamide] |  | >625 | >25 | slightly inhibited the number of infected cells | robustly reduced the number of cells infected | four | robust inhibition of fusion | four | robustly decreased viral mRNA levels | robustly expressed | expressed at very low levels | reduced levels of viral mRNAs | reduced influenza virus (A/WSN/33) mRNA levels | did not have a significant effect | lack of antiviral activity | reduced levels of influenza virus proteins | 0.0168 | four | 
4 | C#CCCC1(CCN(c2ccc(Cl)cc2C)S(=O)(=O)c2cc(Cl)ccc2Cl)N=N1 [compound 52, N-(2-(3-(But-3-yn-1-yl)-3H-diazirin-3-yl)ethyl)-2,5-dichloro-N-(4-chloro-2-methylphenyl)benzenesulfonamide] |  |  |  |  |  |  |  |  |  |  |  |  |  |  |  |  |  |  | not active

— paper PMC8900595 (Journal of medicinal chemistry, 2021)
